Reference: ChEMBL document CHEMBL2146373, “How to blast osteoblasts? Novel dicarba analogues of amylin-(1-8) to treat osteoporosis” (Bioorg Med Chem, 2012)
The source made the active and inactive calls. No cut-off for these calls is given here.

Tested on: Osteoblast
Test: Osteoblast activity in neonatal rat calvarie-derived primary osteoblasts assessed as [3H]thymidine incorporation at 10^-10 to 10^-8 M by beta counting
Type: functional, cell-based

SMILES | Activity
C[C@H](NC(=O)[C@@H]1CC=CC[C@H](NC(=O)[C@@H](N)CCCCN)C(=O)N[C@@H](CC(N)=O)C(=O)N[C@@H]([C@@H](C)O)C(=O)N[C@@H](C)C(=O)N[C@@H]([C@@H](C)O)C(=O)N1)C(N)=O (mixture of isomers) | Active
C[C@H](NC(=O)[C@@H]1CC=CC[C@H](NC(=O)[C@@H](N)CCCCN)C(=O)N[C@@H](CC(N)=O)C(=O)N2CCC[C@H]2C(=O)N[C@@H](C)C(=O)N[C@@H]([C@@H](C)O)C(=O)N1)C(N)=O (mixture of isomers; 2a) | inactive
C[C@H](NC(=O)[C@@H]1CC=CC[C@H](NC(=O)[C@@H](N)CCCCN)C(=O)N[C@@H](CC(N)=O)C(=O)N2CCC[C@H]2C(=O)N[C@@H](C)C(=O)N[C@@H]([C@@H](C)O)C(=O)N1)C(N)=O (mixture of isomers; 2b) | inactive
C[C@H](NC(=O)[C@@H]1CCCCNC(=O)OCC=CCOC(=O)NCCCC[C@H](NC(=O)[C@@H](N)CCCCN)C(=O)N[C@@H](CC(N)=O)C(=O)N[C@@H]([C@@H](C)O)C(=O)N[C@@H](C)C(=O)N[C@@H]([C@@H](C)O)C(=O)N1)C(N)=O (mixture of isomers; 5a) | Active
C[C@H](NC(=O)[C@@H]1CCCCNC(=O)OCC=CCOC(=O)NCCCC[C@H](NC(=O)[C@@H](N)CCCCN)C(=O)N[C@@H](CC(N)=O)C(=O)N[C@@H]([C@@H](C)O)C(=O)N[C@@H](C)C(=O)N[C@@H]([C@@H](C)O)C(=O)N1)C(N)=O (mixture of isomers; 5b) | Active
